Where a name gives a salt, the structure may show the parent alone. Marks after values point to notes of the source that are not given here.

For one test, the system named is LS174T cells. Kind of test: Effect of COMPOUND I mesylate on radiosensitivity of in vitro grown cells. The test is classed as cell-based, human.
Test [1] relates to LS174T human colorectal adenocarcinoma xenografts. Nature of the test: Radioimmunotherapy of SQ LS174T xenografts in athymic mice, with or without COMPOUND I mesylate. The settings on record: for Relative tumor growth: relative to no treatment = 1.
The next test has as its system LS174T SQ xenografts. Kind of test: Effect of COMPOUND I on radiosensitivity of adenocarcinoma xenografts (external radiation). The settings on record: P=0.127, Mantel-Cox logrank analysis.

For the molecule `Cc1ccc(NC(=O)c2ccc(CN3CCN(C)CC3)cc2)cc1Nc1nccc(-c2cccnc2)n1` [COMPOUND I mesylate], the “effect on radiosensitivity, combined with radiation” value in the test on LS174T cells (monolayer, irradiation 1.95 Gy/min, total doses 1 Gy and 6 Gy) is reported as “not sufficient in vitro to synchronize all cells”. Besides, the “effect on cell cycle” value in the test with LS174T cells (pharmacologically relevant concentrations) is “Arrest of LS174T cells in the G1 phase”. Besides, the “Tq (days)” value in test [1] (quadrupling time calculated on day 10 (*), COMPOUND I mesylate PO BID 2 mg/mouse/day) is listed as 7.75* days. In test [1], the Relative tumor growth was 1. In the test with LS174T SQ xenografts, the “difference between radiation plus COMPOUND I mesylate and radiation only” value is “no statistical differences”.

B1: ^131I-B72.3: iodine-131 labeled anti-TAG72 monoclonal antibody B72.3 (radioimmunoconjugate) (conjugate, chains of the INN, looked up)
VH: QVQLQQSDAELVKPGASVKISCKASGYTFTDHAIHWAKQKPEQGLEWIGYISPGNDDIKYNEKFKGKATLTADKSSSTAYMQLNSLTSEDSAVYFCKRSYYGHWGQGTTLTVSS
VL: DIQMTQSPASLSVSVGETVTITCRASENIYSNLAWYQQKQGKSPQLLVYAATNLADGVPSRFSGSGSGTQYSLKINSLQSEDFGSYYCQHFWGTPYTFGGGTRLEIK
modifications: iodine-131 label
Turning to B1, in the test with LS174T cells (^131I-labeled antibody plus COMPOUND I mesylate), the “effect of combined treatment with COMPOUND I mesylate in vitro” value was “neither additive nor synergistic effects are measurable”. Also, the tumor response entry in test [1] (escalating doses) was “cures and tumor growth arrest”; in test [1] (single dose of 0.5 mCi or similar doses), “growth delay but no cures”. Also, the “Tq (days)” value in test [1] (quadrupling time calculated on day 28 (**) after 0.25 mCi ^131I-B72.3 IV) is 18.95** days. The same molecule came in with a Relative tumor growth in test [1] of 2.4.

Values taken from patent publication US20070037825A1, “Enhancing the effect of radioimmunotherapy in the treatment of tumors” (priority 2002, published 2007).
